Measurements: US20230087994A1, “TARGETED BIFUNCTIONAL DEGRADERS” (YALE UNIVERSITY, priority 2019, published 2023)

What was measured:
α-DNP antibody [1] = experiment: Depletion of α-DNP antibody from serum in mice (ELISA); assay type: in vivo; conditions: i.p.; FIG. 79A
HepG2 cells [2] = experiment: DNP-GN3-mediated endocytosis of fluorescently labeled α-DNP antibody by adherent HepG2 cells; assay type: cell-based, human
Protocol: It was next explored whether DNP-GN3 mediates the endocytosis of fluorescently labeled α-DNP antibody.
To explore the cellular mechanism of antibody uptake, cells were treated with chemical inhibitors of several endocytic pathways (FIG. 89).

human MIF = target: T1, human MIF (Homo sapiens, UniProt P14174); experiment: Depletion of injected recombinant human MIF from serum in mice; assay type: in vivo; design: injected into mice; conditions: control molecules; FIG. 136
T1 sequence (P14174 2-115 limits assumed): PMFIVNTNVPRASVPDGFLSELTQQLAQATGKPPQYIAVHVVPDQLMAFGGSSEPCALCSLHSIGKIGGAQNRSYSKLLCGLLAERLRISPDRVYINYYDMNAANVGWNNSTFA
Protocol: In vivo human MIF depletion experiments were undertaken to determine whether MIF-GN3 can mediate the depletion of injected recombinant human MIF from serum in mice. Mice were injected with five μg of the human MIF protein. In this experiment, one group of mice was also injected with a single 10 mpk dose of MIF-GN3 along with human MIF protein. It was observed that after four hours, the average level of human MIF in serum in the PBS-treated mice was 1.76 ng/mL (FIG. 134). In mice treated with 10 mpk MIF-GN3, however, the concentration of human MIF in serum was 0.68 ng/mL. One day after the initial injection, human MIF levels had reached background levels for both conditions. […] It was hypothesized that, due to the short half-life of human MIF in serum, investigating human MIF levels at earlier time points may be more informative.
Next, an experiment was performed to determine whether MIF-GN3 could enhance MIF clearance at time points earlier than four hours. Mice were coinjected with recombinant human MIF and 10 mpk MIF-GN3 via either i.p. or i.v. routes. For the PBS control arms, human MIF was injected with PBS. It was observed that in the absence of MIF-GN3, there was a spike in huMIF levels in circulation after 30 minutes (FIG. 135). In the presence of MIF-GN3, however, levels of MIF protein remained low at 30 minutes and no spike in its concentration was observed. By two hours, the levels of human MIF in circulation decreased to background levels. […] In a further experiment, whether an inhibitor of the MIF protein (3w) is able to mediate the protein's depletion from serum was determined. A bifunctional molecule that mediates the depletion of α-DNP antibody from serum was also assayed as a negative control. Neither of these molecules was expected to mediate the formation of a ternary complex between human MIF protein and ASGPR.
In order to confirm that mice injected with one or ten mpk MIF-GN3 had received the injection, and that the observed stability of MIF concentrations in MIF-GN3 treated mice was not the result of injection error, 200 μg of α-DNP antibody was coinjected with the MIF protein in this experiment. […] An investigation of the ability of MIF-GN3 to mediate the depletion of endogenous mouse MIF in vivo was next undertaken. Mice were treated with either PBS or 10 mpk of MIF-GN3. […] One possible explanation for this finding is that MIF protein may be synthesized rapidly, and any increase in degradation mediated by MIF-GN3 may not be of a large enough magnitude to impact the protein's level in serum.

PC3 cells = experiment: Human prostate cancer PC3 tumor growth in mice; assay type: in vivo; conditions: control and comparator arms; FIG. 138
Protocol: The ability of MIF-GN3 to mediate the depletion of MIF in a therapeutically relevant disease model was investigated. […] An experiment was conducted to determine whether the bifunctional molecule MIF-GN3 can deplete sufficient human MIF from serum to slow PC3 tumor growth. Mice were injected with an aliquot of PC3 cells, and the size of the resultant tumors as well as the levels of human MIF in serum were monitored over five weeks. […] Five weeks after the initial PC3 cell injection, the first of the mice reached maximal tumor size ([…]) and was sacrificed (FIG. 138). […] The decrease in human MIF levels mediated by MIF-GN3 is consistent with a mechanism of action in which MIF-GN3 mediates the depletion and degradation of circulating MIF protein. While the α-MIF antibody would not necessarily be expected to decrease the levels of human MIF, it is possible that the antibody mediates MIF neutralization in a manner which masks its signal as determined by ELISA. Alternatively, the α-MIF antibody may mediate depletion or degradation of huMIF by some endocytic mechanism. Another possible explanation is that the α-MIF antibody decrease serum levels of active human MIF to such an extent at early time points that PC3 cells proliferate much more slowly, and therefore fewer cells are actively secreting human MIF.
Mice were sacrificed when their tumor volumes reached 1000 mm^3. […] At this same time point, less than 25% of the mice in any other arm had survived.

α-DNP antibody [3] = experiment: Depletion of α-DNP antibody from serum in mice (ELISA); assay type: in vivo; conditions: for serum α-DNP antibody levels compared to PBS: initial 200 μg monoclonal antibody, 21 days, nude mice
Protocol: FIG. 94 illustrates that serum levels of α-DNP antibody decrease more rapidly following repeated treatment with DNP-GN3. Serum antibody levels were measured using an ELISA assay. Each experimental group contained three mice. Statistical differences in experiments involving in vivo depletion of α-DNP antibody were assessed by repeated measures two-way ANOVA with Tukey's tests for post-hoc comparison of simple effects between each of the treatment groups and PBS.
Single doses of DNP-GN3 were also found to be efficacious at mediating α-DNP antibody depletion, albeit less effectively than daily dosing (FIG. 96). […] Therefore, it was concluded that DNP-GN3 is able to mediate the depletion of a monoclonal antibody from serum, and functions across a wide range of target protein concentrations and dosing regimens.
DNP-GN3 was also found to be efficacious in depleting polyclonal α-DNP antibody from serum collected from mice immunized with DNP-keyhole limpet haemocyanin (KLH) (FIG. 97). […] Thus, the small molecule DNP-GN3 is not restricted in function to only monoclonal mouse antibodies, but is also effective at removing polyclonal α-DNP antibodies from circulation in mice.

HepG2 cells [4] = experiment: Western blot of α-DNP antibody degradation in HepG2 cells treated with DNP-GN3; assay type: cell-based, human; conditions: anti-Alexa Fluor 488, FIG. 92A
Protocol: In addition, western blotting with an antibody directed to Alexa Fluor 488 was used to determine if endocytosed fluorescently labeled α-DNP antibodies are degraded in vitro. […] Signal arising from Alexa Fluor 488 in cell lysates was associated with only full-length antibody after two hours of incubation. After six hours, a lower molecular weight fluorophore-associated protein fragment between 37 and 50 kDa began to appear. An additional protein fragment with a molecular weight between 25 and 37 kDa was observed after 24 hours. […] Together with the above immunofluorescence studies showing the colocalization of α-DNP antibody-derived fluorescence with lysosomes, these studies support that α-DNP antibody degradation is mediated by lysosomal proteases. Lysosomal degradation is further consistent with a mechanism dependent on ASGPR.

CC(=O)NC1C(OCCOCCOCCNC(=O)CCOCC(COCCC(=O)NCCOCCOCCOC2OC(CO)C(O)C(O)C2NC(C)=O)(COCCC(=O)NCCOCCOCCOC2OC(CO)C(O)C(O)C2NC(C)=O)NC(=O)CNC(=O)COCCOCCOCCNc2ccc([N+](=O)[O-])cc2[N+](=O)[O-])OC(CO)C(O)C1O (stereo not shown) [DNP-GN3]
degradation of injected anti-DNP IgG antibodies in mouse serum (α-DNP antibody [1]): can induce degradation
intracellular fluorescence of adherent HepG2 cells (HepG2 cells [2]; FIG. 87A): dependent on the concentration of both DNP-GN3 and α-DNP antibody
uptake of α-DNP antibody (HepG2 cells [2]; target protein at 1 nM): not effective
human MIF concentration in serum compared to the PBS control (human MIF): no significant decreases
PC3 tumor growth (PC3 cells): not found to decrease tumor growth
α-DNP antibody depleted from serum (α-DNP antibody [3]; 24 hours after a single dose of 1 mpk (vehicle 24%)): 52%
α-DNP antibody depleted from serum (α-DNP antibody [3]; 24 hours after a single dose of 10 mpk (vehicle 24%)): 34%
serum α-DNP antibody levels compared to PBS (α-DNP antibody [3]; daily 1 mpk): significantly reduced
serum α-DNP antibody levels (α-DNP antibody [3]; daily treatment, initial antibody dose 500 μg): significant decrease
polyclonal α-DNP antibody removed from serum compared to PBS (α-DNP antibody [3]; daily treatment, mice immunized with DNP-KLH, each time point): significantly more polyclonal α-DNP antibody was removed
α-DNP antibody depletion from serum (α-DNP antibody [3]; single dose of 100 mpk): Significant depletion
serum α-DNP antibody levels compared to PBS (α-DNP antibody [3]; twice-daily 1 mpk): significantly reduced
fluorophore accumulation in lysates of HepG2 cells (HepG2 cells [4]): accumulate fluorophore in a time- and DNP-GN3-dependent manner
